Assay results: patent US20250171438A1 (Agios Pharmaceuticals, Inc., priority 2022, published 2025)

Molecular target: T1, human PAH with the R408W mutation (Homo sapiens, UniProt P00439, R408W)
T1 construct: expressed in transfected cells
T1 sequence (P00439 1-452 R408W): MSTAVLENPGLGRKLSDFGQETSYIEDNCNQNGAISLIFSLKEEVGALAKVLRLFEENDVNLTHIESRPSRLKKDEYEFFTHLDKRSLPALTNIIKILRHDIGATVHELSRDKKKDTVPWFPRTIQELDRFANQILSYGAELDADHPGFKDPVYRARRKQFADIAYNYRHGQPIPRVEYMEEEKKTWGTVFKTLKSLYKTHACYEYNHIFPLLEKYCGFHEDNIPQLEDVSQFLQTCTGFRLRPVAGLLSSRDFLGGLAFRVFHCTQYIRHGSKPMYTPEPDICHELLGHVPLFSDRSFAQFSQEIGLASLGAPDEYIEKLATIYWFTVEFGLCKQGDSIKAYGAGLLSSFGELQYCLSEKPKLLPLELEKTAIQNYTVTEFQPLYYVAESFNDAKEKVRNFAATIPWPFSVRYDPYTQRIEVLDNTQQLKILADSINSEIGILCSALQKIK
Assay: Cell Based Phenylalanine Flux Assay
Settings: A375 cells expressing human R408W PAH; 24 hrs compound incubation; 13C-Tyrosine by LC-MS; average where tested multiple times; read-out: AC50

SMILES	AC50 [µM]
Cc1nc(-c2ccccc2)c(C(=O)N2CCc3[nH]cnc3[C@H]2c2nc3ccccc3s2)o1 [Example 1520]	0.5 to 1
O=C(c1cnc(C(F)F)s1)N1CCc2[nH]cnc2[C@H]1c1nc2ccccc2s1 [Example 1521]	< 0.5
O=C(c1cnc(C(F)F)s1)N1CCc2[nH]cnc2[C@@H]1c1nc2ccccc2s1 [Example 1522, (R)-(4-(benzo[d]thiazol-2-yl)-6,7-dihydro-1H-imidazo[4,5-c]pyridin-5(4H)-yl)(2-(difluoromethyl)thiazol-5-yl)methanone]	1 to 5
O=C(c1ocnc1-c1ccccn1)N1CCc2[nH]cnc2[C@H]1c1nc2c(F)cccc2s1 [Example 1523, (S)-(4-(4-fluorobenzo[d]thiazol-2-yl)-6,7-dihydro-1H-imidazo[4,5-c]pyridin-5(4H)-yl)(4-(pyridin-2-yl)oxazol-5-yl)methanone]	0.5 to 1
O=C(c1ocnc1-c1ccccn1)N1CCc2[nH]cnc2[C@@H]1c1nc2c(F)cccc2s1 [Example 1524, (R)-(4-(4-fluorobenzo[d]thiazol-2-yl)-6,7-dihydro-1H-imidazo[4,5-c]pyridin-5(4H)-yl)(4-(pyridin-2-yl)oxazol-5-yl)methanone]	> 5
Cn1nc(C(=O)N2CCc3[nH]cnc3[C@H]2c2nc3ccccc3s2)c2ccccc21 [Example 1525]	0.5 to 1
Cn1nc(C(=O)N2CCc3[nH]cnc3[C@@H]2c2nc3ccccc3s2)c2ccccc21 [Example 1526, (R)-(4-(benzo[d]thiazol-2-yl)-6,7-dihydro-1H-imidazo[4,5-c]pyridin-5(4H)-yl)(1-methyl-1H-indazol-3-yl)methanone]	1 to 5
Cc1nc(C2CC2)oc1C(=O)N1CCc2[nH]cnc2[C@H]1c1nc2c(F)cccc2s1 [Example 1527]	< 0.5
Cc1nc(C2CC2)oc1C(=O)N1CCc2[nH]cnc2[C@@H]1c1nc2c(F)cccc2s1 [Example 1528, (R)-(2-cyclopropyl-4-methyloxazol-5-yl)(4-(4-fluorobenzo[d]thiazol-2-yl)-6,7-dihydro-1H-imidazo[4,5-c]pyridin-5(4H)-yl)methanone]	1 to 5
O=C(c1ccn2ncccc12)N1CCc2[nH]cnc2[C@H]1c1nc2ccccc2s1 [Example 1529]	0.5 to 1
O=C(c1ccn2ncccc12)N1CCc2[nH]cnc2[C@@H]1c1nc2ccccc2s1 [Example 1530, (R)-(4-(benzo[d]thiazol-2-yl)-6,7-dihydro-1H-imidazo[4,5-c]pyridin-5(4H)-yl)(pyrrolo[1,2-b]pyridazin-5-yl)methanone]	> 5
Cc1ocnc1CC(=O)N1CCc2[nH]cnc2[C@H]1c1nc2ccccc2s1 [Example 1531]	< 0.5
Cc1ocnc1CC(=O)N1CCc2[nH]cnc2[C@@H]1c1nc2ccccc2s1 [Example 1532, (R)-1-(4-(benzo[d]thiazol-2-yl)-6,7-dihydro-1H-imidazo[4,5-c]pyridin-5(4H)-yl)-2-(5-methyloxazol-4-yl)ethanone]	> 5
Nc1nc(C(F)(F)F)c(C(=O)N2CCc3[nH]cnc3[C@H]2c2nc3ccccc3s2)o1 [Example 1533]	< 0.5
Nc1nc(C(F)(F)F)c(C(=O)N2CCc3[nH]cnc3[C@@H]2c2nc3ccccc3s2)o1 [Example 1534, (R)-(2-amino-4-(trifluoromethyl)oxazol-5-yl)(4-(benzo[d]thiazol-2-yl)-6,7-dihydro-1H-imidazo[4,5-c]pyridin-5(4H)-yl)methanone]	0.5 to 1
O=C(c1oc(-c2ccccn2)nc1C1CC1)N1CCc2[nH]cnc2[C@H]1c1nc2c(F)cccc2s1 [Example 1535]	< 0.5
O=C(c1oc(-c2ccccn2)nc1C1CC1)N1CCc2[nH]cnc2[C@@H]1c1nc2c(F)cccc2s1 [Example 1536, (R)-(4-cyclopropyl-2-(pyridin-2-yl)oxazol-5-yl)(4-(4-fluorobenzo[d]thiazol-2-yl)-6,7-dihydro-1H-imidazo[4,5-c]pyridin-5(4H)-yl)methanone]	1 to 5
CC(C)(O)c1nc(C2CC2)c(C(=O)N2CCc3[nH]cnc3[C@H]2c2nc3c(F)cccc3s2)o1 [Example 1537, (S)-(4-cyclopropyl-2-(2-hydroxypropan-2-yl)oxazol-5-yl)(4-(4-fluorobenzo[d]thiazol-2-yl)-6,7-dihydro-1H-imidazo[4,5-c]pyridin-5(4H)-yl)methanone]	< 0.5
CC(C)(O)c1nc(C2CC2)c(C(=O)N2CCc3[nH]cnc3[C@@H]2c2nc3c(F)cccc3s2)o1 [Example 1538, (R)-(4-cyclopropyl-2-(2-hydroxypropan-2-yl)oxazol-5-yl)(4-(4-fluorobenzo[d]thiazol-2-yl)-6,7-dihydro-1H-imidazo[4,5-c]pyridin-5(4H)-yl)methanone]	1 to 5
O=C(c1ocnc1C(F)F)N1CCc2[nH]cnc2[C@H]1c1nc2ccccc2s1 [Example 1539]	< 0.5
O=C(c1ocnc1C(F)F)N1CCc2[nH]cnc2[C@@H]1c1nc2ccccc2s1 [Example 1540, (R)-(4-(benzo[d]thiazol-2-yl)-6,7-dihydro-1H-imidazo[4,5-c]pyridin-5(4H)-yl)(4-(difluoromethyl)oxazol-5-yl)methanone]	< 0.5
CC(C)(O)c1nc(C(F)(F)F)c(C(=O)N2CCc3[nH]cnc3[C@H]2c2nc3c(F)cccc3s2)o1 [Example 1541, (S)-(4-(4-fluorobenzo[d]thiazol-2-yl)-6,7-dihydro-1H-imidazo[4,5-c]pyridin-5(4H)-yl)(2-(2-hydroxypropan-2-yl)-4-(trifluoromethyl)oxazol-5-yl)methanone]	< 0.5
CC(C)(O)c1nc(C(F)(F)F)c(C(=O)N2CCc3[nH]cnc3[C@@H]2c2nc3c(F)cccc3s2)o1 [Example 1542, (R)-(4-(4-fluorobenzo[d]thiazol-2-yl)-6,7-dihydro-1H-imidazo[4,5-c]pyridin-5(4H)-yl)(2-(2-hydroxypropan-2-yl)-4-(trifluoromethyl)oxazol-5-yl)methanone]	< 0.5

Results, then the compound that gave them:

AC50 [µM]	SMILES
< 0.5	CC(C)(O)c1nc(C2CC2)c(C(=O)N2CCc3[nH]cnc3[C@H]2c2nc3ccccc3s2)o1 [Example 1543]
1 to 5	CC(C)(O)c1nc(C2CC2)c(C(=O)N2CCc3[nH]cnc3[C@@H]2c2nc3ccccc3s2)o1 [Example 1544, (R)-(4-(benzo[d]thiazol-2-yl)-6,7-dihydro-1H-imidazo[4,5-c]pyridin-5(4H)-yl)(4-cyclopropyl-2-(2-hydroxypropan-2-yl)oxazol-5-yl)methanone]
> 5	Cc1ncoc1C(=O)N1C[C@H](C)c2[nH]cnc2[C@@H]1c1nc2ccccc2s1 [Example 1545, ((4R,7S)-4-(benzo[d]thiazol-2-yl)-7-methyl-1,4,6,7-tetrahydro-5H-imidazo[4,5-c]pyridin-5-yl)(4-methyloxazol-5-yl)methanone]
0.5 to 1	Cc1ncoc1C(=O)N1C[C@H](C)c2[nH]cnc2[C@H]1c1nc2ccccc2s1 [Example 1546, ((4S,7S)-4-(benzo[d]thiazol-2-yl)-7-methyl-1,4,6,7-tetrahydro-5H-imidazo[4,5-c]pyridin-5-yl)(4-methyloxazol-5-yl)methanone]
1 to 5	Cc1ncoc1C(=O)N1C[C@@H](C)c2[nH]cnc2[C@H]1c1nc2ccccc2s1 [Example 1547, ((4S,7R)-4-(benzo[d]thiazol-2-yl)-7-methyl-6,7-dihydro-1H-imidazo[4,5-c]pyridin-5(4H)-yl)(4-methyloxazol-5-yl)methanone]
> 5	Cc1ncoc1C(=O)N1C[C@@H](C)c2[nH]cnc2[C@@H]1c1nc2ccccc2s1 [Example 1548, ((4R,7R)-4-(benzo[d]thiazol-2-yl)-7-methyl-6,7-dihydro-1H-imidazo[4,5-c]pyridin-5(4H)-yl)(4-methyloxazol-5-yl)methanone]
< 0.5	Cc1cc(C2(C(=O)N3CCc4[nH]cnc4[C@H]3c3nc4ccccc4s3)CC2)on1 [Example 1549]
1 to 5	Cc1cc(C2(C(=O)N3CCc4[nH]cnc4[C@@H]3c3nc4ccccc4s3)CC2)on1 [Example 1550, (R)-(4-(benzo[d]thiazol-2-yl)-6,7-dihydro-1H-imidazo[4,5-c]pyridin-5(4H)-yl)(1-(3-methylisoxazol-5-yl)cyclopropyl)methanone]
0.5 to 1	C[C@@H]1CN(C(=O)c2ocnc2C2CC2)[C@H](c2nc3c(F)cccc3s2)c2nc[nH]c21 [Example 1551, (4-cyclopropyloxazol-5-yl)((4S,7R)-4-(4-fluorobenzo[d]thiazol-2-yl)-7-methyl-6,7-dihydro-1H-imidazo[4,5-c]pyridin-5(4H)-yl)methanone]
1 to 5	C[C@@H]1CN(C(=O)c2ocnc2C2CC2)[C@@H](c2nc3c(F)cccc3s2)c2nc[nH]c21 [Example 1552, (4-cyclopropyloxazol-5-yl)((4R,7R)-4-(4-fluorobenzo[d]thiazol-2-yl)-7-methyl-6,7-dihydro-1H-imidazo[4,5-c]pyridin-5(4H)-yl)methanone]
< 0.5	CC(C)(O)c1nc(C(F)(F)F)c(C(=O)N2CCc3[nH]cnc3[C@H]2c2nc3ccccc3s2)o1 [Example 1553]
< 0.5	CC(C)(O)c1nc(C(F)(F)F)c(C(=O)N2CCc3[nH]cnc3[C@@H]2c2nc3ccccc3s2)o1 [Example 1554, (R)-(4-(benzo[d]thiazol-2-yl)-6,7-dihydro-1H-imidazo[4,5-c]pyridin-5(4H)-yl)(2-(2-hydroxypropan-2-yl)-4-(trifluoromethyl)oxazol-5-yl)methanone]
1 to 5	Cn1cc(C(F)(F)C(=O)N2CCc3[nH]cnc3[C@H]2c2nc3ccccc3s2)cn1 [Example 1555]
